According to patent US10407388B2, “Thiourea derivatives as activators of RORα and pharmaceutical composition containing same” (SEOUL NATIONAL UNIVERSITY R & DB FOUNDATION, priority 2011, dated 2019):

What was measured:
FAS [1] = assay: Expression of FAS protein in liver of mice with high-fat diet-induced fatty liver, western blotting; format: in vivo; conditions: oral, 10 mg/kg/day or 30 mg/kg/day for 2 days; liver tissue; FIG. 11b
Method: (§1) 3 days after the diet was fed, the mice were fed the high-fat diet containing safflower oil while being orally administered JC1-40 and JC1-42, which had been diluted with 0.5% carboxymethyl cellulose, at a dose of 10 mg/kg/day or 30 mg/kg/day for 2 days. 5 days after the diet was fed, the mice were sacrificed to extract liver tissues therefrom, and the expression of proteins was analyzed by western blotting analysis. That is, after treatment, each liver tissue was homogenized in a lysis buffer containing 50 mM NaCl, 50 mM Tris pH 7.4, 5 mM EDTA, 1% NP-40, and a protease inhibitor, and then centrifuged to obtain a total cell lysate. 20 μg to 30 μg of proteins collected from the total cell lysate was subjected to 7% to 9% SDS-PAGE, and was transferred to a polyvinylidene difluoride membrane (Millipore, Bedford, Mass., USA). […] Immunoreactive proteins were detected with Amersham ECL western blotting detection reagents using an HRP-conjugated secondary antibody (Zymed Lab). Protein concentrations were quantified by BCA (Pierce) analysis, and the expression of α-tubulin was monitored as a control. […]

AMPK = assay: Phosphorylation of AMPK in liver of mice with high-fat diet-induced fatty liver, western blotting; format: in vivo; conditions: oral, 10 mg/kg/day or 30 mg/kg/day for 2 days; liver tissue; FIG. 11b
Method: as §1

[2] = system: mice with high-fat diet-induced fatty liver; assay: Intrahepatic triglyceride, intrahepatic fat accumulation and body weight in mice with high-fat diet-induced fatty liver; format: in vivo; conditions: oral, 10 mg/kg/day or 30 mg/kg/day for 2 days; for amount of intrahepatic triglyceride, which had been increased by the high-fat diet: FIG. 12a; for intrahepatic fat accumulation (Oil Red O staining): FIG. 12b; for body weights of the mice, which had been increased by the high-fat diet: FIG. 12c
Method: 3 days after the diet was fed, the mice were fed the high-fat diet containing safflower oil while being orally administered JC1-40 and JC142, which had been diluted with 0.5% carboxymethyl cellulose, at a dose of 10 mg/kg/day or 30 mg/kg/day for 2 days. 5 days after the diet was fed, the mice were sacrificed to extract liver tissues therefrom, and the amounts of intrahepatic triglycerides were measured using an EnzyChrom™ triglyceride assay kit (BioAssay Systems).
In addition, Oil Red O staining, which enables the identification of intrahepatic fat accumulation, was performed on the extracted liver tissues of the mice.

SREBP-1 = assay: Expression of SREBP-1 protein in liver of mice with high-fat diet-induced fatty liver, western blotting; format: in vivo; conditions: oral, 10 mg/kg/day or 30 mg/kg/day for 2 days; liver tissue; FIG. 11b
Method: as §1

A7r5 = assay: Proliferation of vascular smooth muscle cells, MTT; format: cell-based, rat; conditions: 100 μM for 2 days, 4 days, or 6 days, FIG. 14
Method: A7r5, which is a rat smooth muscle cell line, was purchased from ATCC. A7r5 was cultured in 5% CO2 using a DMEM supplemented with 10% FBS, penicillin (100 U/ml), and streptomycin (100 μg/ml) prior to use in an experiment. A7r5 cells (2×10^3 cells/well) were seeded on a 96-well culture plate and cultured overnight. After culturing, the A7r5 cells were treated with each of the JC1-40 and JC1-42 compounds at a concentration of 100 μM for 2 days, 4 days, or 6 days. Subsequently, the A7r5 cells were treated with MTT (3-4,5-dimethylthiazol-2-yl)-2,5-diphenyl-tetrazolium bromide) (2 mg/ml, 50 μl) for 4 hours, and then the medium was removed and 200 μl of DMSO was added to the plate. The contents in the plate were mixed for 5 minutes, and then absorbance was measured at 595 nm. Data was attained as the mean and SD for the three independent experimental results, and the results thereof are illustrated in FIG. 14.

ACC = assay: Phosphorylation of ACC in HepG2 cells, western blotting; format: cell-based, human; conditions: 100 μM, 24 hours; FIGS. 7a and 7b
Method: HepG2 cells (1×10^6 cells/well) were seeded on a 60-dish, and cultured overnight in a DMEM containing 10% FBS. The HepG2 cells were maintained at 37° C. in a humidification thermostat containing 5% CO2 and 95% air. After culturing, the HepG2 cells were treated with 100 μM JC1-38 and JC1-40 (or 100 μM JC1-38 and JC1-42), 2 mM metfornin, and 2 mM AICIR for 24 hours. After treatment, the expression of RORα and phosphorylated ACC (pACC) proteins was analyzed by western blotting, and the expression of α-tubulin was monitored as a control. The results thereof are illustrated in FIGS. 7a and 7b.

LXRα = assay: Expression of LXRα protein in liver of mice with high-fat diet-induced fatty liver, western blotting; format: in vivo; conditions: oral, 10 mg/kg/day or 30 mg/kg/day for 2 days; liver tissue; FIG. 11b
Method: as §1

FAS [3] = assay: Expression of FAS protein in HepG2 cells, western blotting; format: cell-based, human; conditions: for expression of FAS, which had been increased by T17: 0, 1, 10, 50, 100 μM with 1 μM T17, 24 hours, FIGS. 6b and 6c; for expression of FAS protein: 100 μM, 24 hours, FIG. 6a
Method: HepG2 cells (1×10^6 cells/well) were seeded on a 60-dish and cultured overnight in a DMEM containing 10% FBS. The HepG2 cells were maintained at 37° C. in a humidification thermostat containing 5% CO2 and 95% air. After culturing, the HepG2 cells were treated with each of the JC1-38, JC1-40, and JC1-42 compounds at a concentration of 100 μM, and, as a positive control, the HepG2 cells were treated with 2 mM metformin, which is an AMPK activator, for 24 hours. After treatment, the expression of proteins was analyzed by western blotting analysis. That is, after treatment, the HepG2 cells were destroyed on ice in a lysis buffer containing 50 mM NaCl, 50 mM Tris pH 7.4, 5 mM EDTA, 1% NP-40, and a protease inhibitor for 30 minutes, and then centrifuged to obtain a total cell lysate. 20 μg to 30 μg of proteins collected from the total cell lysate was subjected to 7% to 9% sodium dodecyl sulfate-polyacrylamide gel electrophoresis (SDS-PAGE), and was transferred to a polyvinylidene difluoride membrane (Millipore, Bedford, Mass., USA). The resulting product was subjected to blocking with 5% or 10% (w/v) nonfat dry milk in PBS containing 0.1% Tween-20, and was reacted with antibodies specific to RORα (Affinity BioReagents), LXRα, SREBP-1, FAS (Santa Cruz Biotechnology), phospho-ACC (Cell signaling), and α-tubulin (Calbiochem). Immunoreactive proteins were detected with Amersham ECL western blotting detection reagents using a horseradish peroxidase (HRP)-conjugated secondary antibody (Zymed Lab). Protein concentrations were quantified by bicinchoninic acid (BCA) (Pierce) analysis, and the expression of α-tubulin was monitored as a control. The results thereof are illustrated in FIG. 6a.
In addition, HepG2 cells were cultured under the same conditions, and then the HepG2 cells were treated with particular concentrations (0 μM, 1 μM, 10 μM, 50 μM, and 100 μM) of JC1-40 (or JC1-42) and 1 μM T17 for 24 hours. After treatment, the expression of proteins was analyzed by western blotting analysis, and the expression of α-tubulin was monitored as a control. The results thereof are illustrated in FIGS. 6b and 6c.

SMILES: CNC(=S)NCc1ccc(Oc2ccccc2)cc1 [Compound 42, 1-(4-phenoxy-benzyl)-3-methyl-thiourea]
- expression of FAS protein, which had been increased by the high-fat diet (FAS [1]): decreased
- phosphorylation of AMPK (AMPK): increased
- amount of intrahepatic triglyceride, which had been increased by the high-fat diet [2]: decreased
- intrahepatic fat accumulation (Oil Red O staining) [2]: decreased
- body weights of the mice, which had been increased by the high-fat diet [2]: decreased
- expression of SREBP-1 protein, which had been increased by the high-fat diet (SREBP-1): decreased
- proliferation of vascular smooth muscle cells (A7r5): decreased
- phosphorylation of ACC (ACC): increased
- expression of LXRα protein, which had been increased by the high-fat diet (LXRα): decreased
- expression of FAS, which had been increased by T17 (FAS [3]): decreased in a manner dependent on the concentration
- expression of FAS protein (FAS [3]): decreased

SMILES: CNC(=S)NCc1ccc(OCc2ccccc2)cc1 [Compound 40, 1-(4-benzyloxy-benzyl)-3-methyl-thiourea]
- expression of FAS protein, which had been increased by the high-fat diet (FAS [1]): decreased
- phosphorylation of AMPK (AMPK): increased
- amount of intrahepatic triglyceride, which had been increased by the high-fat diet [2]: decreased
- intrahepatic fat accumulation (Oil Red O staining) [2]: decreased
- body weights of the mice, which had been increased by the high-fat diet [2]: decreased
- expression of SREBP-1 protein, which had been increased by the high-fat diet (SREBP-1): decreased
- proliferation of vascular smooth muscle cells (A7r5): decreased
- phosphorylation of ACC (ACC): increased
- expression of LXRα protein, which had been increased by the high-fat diet (LXRα): decreased
- expression of FAS, which had been increased by T17 (FAS [3]): decreased in a manner dependent on the concentration
- expression of FAS protein (FAS [3]): decreased
